For 24 molecules, IC50 results are on record in US9765092B2, “Tricyclic piperidine compounds” (ACTELION PHARMACEUTICALS LTD, priority 2013, dated 2017).

The target in one assay is human TPH1 (Homo sapiens (Human), UniProt P17752). Put plainly: Biochemical in vitro assay using fluorescence readout (TPH1 inhibition). To be noted: full length human TPH1, 40 μM L-tryptophan, 15° C., 60 minutes, fluorescence at 540 nm; mean if determined several times.
Sequence of human TPH1 (P17752 whole entry): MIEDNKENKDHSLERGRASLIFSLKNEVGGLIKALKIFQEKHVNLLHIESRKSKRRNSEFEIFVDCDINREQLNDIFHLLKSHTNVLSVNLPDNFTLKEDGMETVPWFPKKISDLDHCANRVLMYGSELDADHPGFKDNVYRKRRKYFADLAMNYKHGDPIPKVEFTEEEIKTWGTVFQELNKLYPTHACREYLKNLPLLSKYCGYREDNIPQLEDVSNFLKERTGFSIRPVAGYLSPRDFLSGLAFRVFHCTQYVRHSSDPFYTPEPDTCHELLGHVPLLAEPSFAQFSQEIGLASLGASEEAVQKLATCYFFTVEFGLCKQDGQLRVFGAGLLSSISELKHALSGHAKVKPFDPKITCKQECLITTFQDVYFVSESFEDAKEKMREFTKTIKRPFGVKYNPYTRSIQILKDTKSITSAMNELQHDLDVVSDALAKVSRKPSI
In the case of `Cc1nn2c3c(nc2s1)CCN(C(=O)COc1ccc(N2CC(F)(F)C2)cc1Cl)C3c1ccc(Cl)cc1F` (stereo not drawn) [Example 1.4.29, 1-(5-(4-Chloro-2-fluorophenyl)-2-methyl-7,8-dihydro-[1,3,4]thiadiazolo[2′,3′:2,3]imidazo[4,5-c]pyridin-6(5H)-yl)-2-(2-chloro-4-(3,3-difluoroazetidin-1-yl)phe-noxy)ethanone], inhibition was half-maximal at 6 nM (IC50).

`Cc1nn2c3c(nc2s1)CCN(C(=O)COc1ccc(C(F)(F)F)cc1Cl)C3c1cc(C(=O)N(C)C)cs1` (stereo not drawn) [Example 1.9.3, 5-(6-(2-(2-Chloro-4-(trifluoromethyl)phenoxy)acetyl)-2-methyl-5,6,7,8-tetrahydro-[1,3,4]thiadiazolo[2′,3′:2,3]imidazo[4,5-c]pyridin-5-yl)-N,N-dimethylthiophene-3-carboxamide] showed an IC50 of 77 nM.

`Cc1nn2c3c(nc2s1)CCN(C(=O)COc1ccc(N2CCOCC2)nc1Cl)C3c1nc(C(N)=O)cs1` (stereo not drawn) [Example 1.48.1, 2-(6-(2-((2-Chloro-6-morpholinopyridin-3-yl)oxy)acetyl)-2-methyl-5,6,7,8-tetrahydro-[1,3,4]thiadiazolo[2′,3′:2,3]imidazo[4,5-c]pyridin-5-yl)thiazole-4-carboxamide] displayed an IC50 of 5 nM.

For `Cc1nn2c3c(nc2s1)CCN(C(=O)COc1ccc(N2CCOCC2)nc1Cl)C3c1ccc(C(=O)N(C)C)o1` (stereo not drawn) [Example 1.40.2, 5-(6-(2-((2-Chloro-6-morpholinopyridin-3-yl)oxy)acetyl)-2-methyl-5,6,7,8-tetrahydro-[1,3,4]thiadiazolo[2′,3′:2,3]imidazo[4,5-c]pyridin-5-yl)-N,N-dimethylfuran-2-carboxamide], the IC50 was found to be 12 nM.

`Cc1nn2c3c(nc2s1)CCN(C(=O)COc1ccc(N2CCOCC2)nc1Cl)C3c1ccc(CN(C)C)s1` (stereo not drawn) [Example 1.36.1, 2-((2-Chloro-6-morpholinopyridin-3-yl)oxy)-1-(5-(5-((dimethylamino)-methyl)thiophen-2-yl)-2-methyl-7,8-dihydro-[1,3,4]thiadiazolo[2′,3′:2,3]imidazo[4,5-c]pyridin-6(5H)-yl)-ethanone]: it took 384 nM to reach half-maximal inhibition (IC50).

The molecule `Cc1nn2c3c(nc2s1)CCN(C(=O)COc1ccc(NS(=O)(=O)C2CC2)nc1Cl)C3c1ccc(Cl)cc1F` (stereo not drawn) [Example 1.4.16, N-(6-Chloro-5-(2-(5-(4-chloro-2-fluorophenyl)-2-methyl-7,8-dihydro-[1,3,4]thiadiazolo[2′,3′:2,3]imidazo[4,5-c]pyridin-6(5H)-yl)-2-oxoethoxy)pyridin-2-yl)-cyclopropanesulfonamide] registered an IC50 of 7 nM.

Still in this assay, the particulars now being: human TPH1, fluorescence readout.
In turn, `Cc1ccc(C2c3c(nc4sc(C(F)F)nn34)CCN2C(=O)COc2ccc(NS(C)(=O)=O)nc2Cl)c(F)c1` (stereo not drawn) [Example 8.2.1, N-(6-chloro-5-(2-(2-(difluoromethyl)-5-(2-fluoro-4-methylphenyl)-7,8-dihydro-[1,3,4]thiadiazolo[2′,3′:2,3]imidazo[4,5-c]pyridin-6(5H)-yl)-2-oxoethoxy)pyridin-2-yl)methanesulfonamide] showed an IC50 of 24 nM.

Molecule `Cc1nn2c3c(nc2s1)CCN(C(=O)COc1ccc(N2CCOCC2)nc1Cl)C3c1ccc(C2CC2)cc1F` (stereo not drawn) [Example 1.6.17, 2-((2-chloro-6-morpholinopyridin-3-yl)oxy)-1-(5-(4-cyclopropyl-2-fluorophenyl)-2-methyl-7,8-dihydro-[1,3,4]thiadiazolo [2′,3′:2,3]imidazo[4,5-c]pyridin-6(5H)-yl)ethanone] came in with an IC50 of 3 nM.

`CCc1nc(N2CCCS2(=O)=O)ccc1OCC(=O)N1CCc2nc3sc(C)nn3c2[C@@H]1c1sc(C)nc1C` [Example 1.68.8, (R)-1-(5-(2,4-dimethylthiazol-5-yl)-2-methyl-7,8-dihydro-[1,3,4]thiadiazolo[2′,3′:2,3]imidazo[4,5-c]pyridin-6(5H)-yl)-2-((6-(1,1-dioxidoisothiazolidin-2-yl)-2-ethylpyridin-3-yl)oxy)ethanone] yielded an IC50 of 5 nM.

In turn, `Cc1ccc(C2c3c(nc4sccn34)CCN2C(=O)COc2cccnc2Cl)c(F)c1` (stereo not drawn) [Example 6.10.3, 2-((2-chloropyridin-3-yl)oxy)-1-(5-(2-fluoro-4-methyl-phenyl)-7,8-dihydrothiazolo[2′,3′:2,3]imidazo[4,5-c]-pyridin-6(5H)-yl)ethanone] registered a half-inhibitory concentration (IC50) of 14 nM.

`O=C(COc1ccc(N2CCOCC2)nc1Cl)N1CCc2nc3sccn3c2C1c1ccc(C2CC2)cc1F` (stereo not drawn) [Example 6.6.1, 2-((2-chloro-6-morpholinopyridin-3-yl)oxy)-1-(5-(4-cyclopropyl-2-fluorophenyl)-7,8-dihydrothiazolo-[2′,3′:2,3]imidazo[4,5-c]pyridin-6(5H)-yl)ethanone] displayed an IC50 of 4 nM.

`CCc1nc(C)ccc1OCC(=O)N1CCc2nc3sc(C)nn3c2C1c1ncc(C2CC2)cc1F` (stereo not drawn) [Example 1.14.2, 1-(5-(5-cyclopropyl-3-fluoropyridin-2-yl)-2-methyl-7,8-dihydro-[1,3,4]thiadiazolo[2′,3′:2,3]imidazo[4,5-c]pyridin-6(5H)-yl)-2-((2-ethyl-6-methylpyridin-3-yl)oxy)ethanone]: the midpoint of inhibition, the IC50, lay at 6 nM.

The molecule `Cc1nn2c3c(nc2s1)CCN(C(=O)COc1ccc(NS(C)(=O)=O)nc1Cl)C3c1ncc(Cl)cc1F` (stereo not drawn) [Example 1.33.6, N-(6-chloro-5-(2-(5-(5-chloro-3-fluoropyridin-2-yl)-2-methyl-7,8-dihydro-[1,3,4]thiadiazolo[2′,3′:2,3]imidazo[4,5-c]pyridin-6(5H)-yl)-2-oxoethoxy)pyridin-2-yl)methanesulfonamide] yielded a half-inhibitory concentration (IC50) of 6 nM.

In the case of `Cc1nn2c3c(nc2s1)CCN(C(=O)COc1ccc(N(C)C)nc1Cl)C3c1ccc(Cl)cc1F` (stereo not drawn) [Example 1.4.7, 1-(5-(4-chloro-2-fluorophenyl)-2-methyl-7,8-dihydro-[1,3,4]thiadiazolo[2′,3′:2,3]imidazo[4,5-c]pyridin-6(5H)-yl)-2-((2-chloro-6-(dimethylamino)pyridin-3-yl)oxy)ethanone], half-maximal inhibition (IC50) was put at 6 nM.

Take `COC1(C)CN(c2ccc(OCC(=O)N3CCc4nc5sc(C)nn5c4C3c3ccc(Cl)cc3F)c(Cl)n2)C1` (stereo not drawn) [Example 1.4.43, 1-(5-(4-chloro-2-fluorophenyl)-2-methyl-7,8-dihydro-[1,3,4]thiadiazolo[2′,3′:2,3]imidazo[4,5-c]pyridin-6(5H)-yl)-2-((2-chloro-6-(3-methoxy-3-methylazetidin-1-yl)pyridin-3-yl)oxy)ethanone]: the IC50 was 35 nM.

As for `CCc1nc(NS(C)(=O)=O)ccc1OCC(=O)N1CCc2nc3sc(C(F)(F)F)nn3c2C1c1sc(C)nc1C` (stereo not drawn) [Example 5.4.2, N-(5-(2-(5-(2,4-dimethylthiazol-5-yl)-2-(trifluoromethyl)-7,8-dihydro-[1,3,4]thiadiazolo[2′,3′:2,3]imidazo[4,5-c]pyridin-6(5H)-yl)-2-oxoethoxy)-6-ethylpyridin-2-yl)methanesulfonamide], the midpoint of inhibition, the IC50, lay at 27 nM.

Molecule `CNC(=O)c1cc(F)c(C2c3c(nc4sc(C)nn34)CCN2C(=O)COc2ccc(C(F)(F)F)nc2Cl)s1` (stereo not drawn) [Example 1.25.3, 5-(6-(2-((2-chloro-6-(trifluoromethyl)pyridin-3-yl)oxy)acetyl)-2-methyl-5,6,7,8-tetrahydro-[1,3,4]thiadiazolo [2′,3′:2,3]imidazo[4,5-c]pyridin-5-yl)-4-fluoro-N-methylthiophene-2-carboxamide] registered an IC50 of 35 nM.

The molecule `Cc1nn2c3c(nc2s1)CCN(C(=O)COc1ccc(C(=O)NC2CC2)nc1Cl)C3c1ccc(C(C)(C)O)cc1F` (stereo not drawn) [Example 1.80.2, 6-chloro-N-cyclopropyl-5-(2-(5-(2-fluoro-4-(2-hydroxypropan-2-yl)phenyl)-2-methyl-7,8-dihydro-[1,3,4]thiadiazolo[2′,3′:2,3]imidazo[4,5-c]pyridin-6(5H)-yl)-2-oxoethoxy)picolinamide] yielded an IC50 of 65 nM.

`COCc1ccc(C2c3c(nc4sc(C)nn34)CCN2C(=O)COc2ccc(NS(C)(=O)=O)nc2Cl)c(F)c1` (stereo not drawn) [Example 1.82.1, N-(6-chloro-5-(2-(5-(2-fluoro-4-(methoxymethyl)phenyl)-2-methyl-7,8-dihydro-[1,3,4]thiadiazolo[2′,3′:2,3]imidazo[4,5-c]pyridin-6(5H)-yl)-2-oxoethoxy)pyridin-2-yl)methanesulfonamide] showed an IC50 of 17 nM.

For the molecule `O=C(COc1ccc(CN2CCOCC2)nc1Cl)N1CCc2nc3sccn3c2C1c1nc2ccccc2s1` (stereo not drawn) [Example 6.12.8, 1-(5-(benzo[d]thiazol-2-yl)-7,8-dihydrothiazolo-[2′,3′:2,3]imidazo[4,5-c]pyridin-6(5H)-yl)-2-((2-chloro-6-(morpholinomethyl)pyridin-3-yl)oxy)ethanone], the IC50 was 43 nM.

For the molecule `COc1ccc(C2c3c(nc4sccn34)CCN2C(=O)COc2ccc(CN3CCOCC3)cc2Cl)c(F)c1` (stereo not drawn) [Example 6.3.1, 2-(2-chloro-4-(morpholinomethyl)phenoxy)-1-(5-(2-fluoro-4-methoxyphenyl)-7,8-dihydrothiazolo[2′,3′:2,3]-imidazo[4,5-c]pyridin-6(5H)-yl)ethanone], the IC50 was 5 nM.

Molecule `CCNC(=O)Nc1nc(C2c3c(nc4sc(C)nn34)CCN2C(=O)COc2ccc(N3CCOCC3)nc2Cl)cs1` (stereo not drawn) [Example 1.47.1, 1-(4-(6-(2-((2-chloro-6-morpholinopyridin-3-yl)oxy)acetyl)-2-methyl-5,6,7,8-tetrahydro-[1,3,4]thiadiazolo[2′,3′:2,3]imidazo[4,5-c]pyridin-5-yl)thiazol-2-yl)-3-ethylurea] yielded an IC50 of 18 nM.

With `CN(C)C(=O)c1ccc(OCC(=O)N2CCc3nc4sccn4c3C2c2sc(C(=O)N(C)C)cc2F)c(Cl)n1` (stereo not drawn) [Example 6.9.2, 6-chloro-5-(2-(5-(5-(dimethylcarbamoyl)-3-fluoro-thiophen-2-yl)-7,8-dihydrothiazolo[2′,3′:2,3]imidazo-[4,5-c]pyridin-6(5H)-yl)-2-oxoethoxy)-N,N-dimethylpicolinamide], the IC50 worked out at 5 nM.

With `Cc1nn2c3c(nc2s1)CCN(C(=O)COc1ccc(NS(=O)(=O)C2CC2)nc1Cl)C3c1sccc1F` (stereo not drawn) [Example 1.23.9, N-(6-chloro-5-(2-(5-(3-fluorothiophen-2-yl)-2-methyl-7,8-dihydro-[1,3,4]thiadiazolo[2′,3′:2,3]imidazo[4,5-c]pyridin-6(5H)-yl)-2-oxoethoxy)pyridin-2-yl)cyclopropanesulfonamide], the IC50 came out at 14 nM.

Broadly, the IC50 is the midpoint of a concentration-inhibition curve. Low values mean greater potency, high ones weaker potency.
